Data: patent publication US5434295A (priority 1994, dated 1995)

Key:
cannabimimetic activity = conditions: cited from earlier work
Rat brain NMDA receptors = assay: Blockade of NMDA response in Xenopus oocytes injected with rat brain RNA; format: biochemical
Excerpt: Blockade of NMDA-induced voltage changes in Xenopus oocytes: Frog oocytes can be injected with genetic material from various species and organs, resulting in the expression of the various molecules encoded by this material in the oocyte. Injection of rat brain RNA provides active NMDA receptors on the ooctye surface. Application of NMDA results in changes in the electrical activity recorded from the oocytes. Various NMDA antagonists block the NMDA-induced changes in electrical activity and their potency and dose dependence in this system indicate their potency and mode of action as NMDA antagonists.
The oocyte is the most widely used system for studying the molecular, biophysical and pharmacological properties of expressed voltage- or transmitter-operated ion channels. This giant cell offers several advantages for this type of studies. It can be readily used for two-electrode voltage clamp studies, translates injected mRNA from different sources and functionally expresses the translated proteins, and it is also readily amenable for intracellular micron injections. Importantly, the recordings of neurotransmitter- or voltage-induced currents in a single oocyte are extremely stable and can performed repeatedly for 2-3 hours; this allows the performance of a full dose-response relation in single oocytes.
Rat brain NMDA receptors were expressed in Xenopus oocytes injected with total rat brain RNA. Dascal and Lotan. The conditions for injection culture and electrical recording from oocytes were as described by Dascal and Lotan (in: Methods in Molecular Biology, Longstaff and Revest, eds. Vol. 13, Chapter 13, Humana Press, N.J., 1992).
Briefly, female Xenopus were anesthetized by immersion in water containing 0.15% tricaine methanesulfonate and a small incision was made in the lower abdomen. Ovary fragments were removed into ND-96.
The oocytes were defolliculated by the collagenase treatment in order to remove the follicle cell layer. Defolliculated oocytes were injected with total rat brain RNA and incubated for 2-4 days at 22° C. in sterile NDE-96 solution. ND-96 solution contains (in mM): NaCl - 96, KCl - 2, CaCl2 - 1.8, Hepes - 5 (pH=7.4-7.6). NDE-96 contains in addition, 2.5 mM sodium pyruvate, 100 unit/ml penicillin, 100 μg/ml streptomycin. A single oocyte was placed in a 1 ml bath constantly superfused with ND-96 solution at room temperature. The cell was impaled with two microelectrodes and held at membrane potential of -60 mV using voltage clamp circuit.
RNA was extracted from the brain of 14-day old rat brain. Each oocyte was injected with 50 nl total RNA (4-8 mg/ml in water, stored at -80° C. in […] aliquots).
NMDA receptors were activated by application of NMDA with glycine in Mg-free ND-96 solution. It was shown previously and also observed in this study that the entry of calcium ions through the NMDA receptor-channel evokes a Ca-dependent Cl^- current which appeared as an early inward current peak preceding and overlapping the actual NMDA response and hindering a quantitative pharmacological study of NMDA antagonists. Experimental conditions were therefore worked out aimed at eliminating the Cl^- current. The best protocol employed the use of Ca-free, Ba-containing solution, avoiding repetitive application of antagonists, as well as other conditions including optimal perfusion rate and optimal intervals between repetitive NMDA applications.
Several NMDA receptor blockers were tested. These compounds have […] and have to be dissolved in 100% dimethyl sulfoxide (DMSO) and diluted for use in ND-96 that contained 1% DMSO. Therefore, the effect of 1% DMSO on the response to 10^-4 M NMDA and 5×10^-6 M glycine was examined. DMSO had no effect on NMDA response in three different cells.
Eight putative NMDA antagonists of the HU group, including 270, 271 and 259 were tested for anti-NMDA activity at a glutamate receptor. […]

[1] = test system: intraocular pressure (IOP); assay: Ocular hypotensive activity (intraocular pressure) in albino rabbits; format: in vivo, albino rabbit; conditions: for Max ΔIOP: ** drug vs. vehicle P < 0.01
Experimental: Bicyclic compounds of the present invention were also tested for IOP lowering effects.
Sci., 82, 1069-1079 (1993).
The phospholipids and HU-259 were dissolved in the stabilized oily phase. The other excipients were dissolved in the aqueous phase. Both phases were heated separately to 70° C. and dispersed by a magnetic stirrer. Emulsification was completed using a "high speed mixer" for 5 min at 85° C. The resulting emulsion was cooled rapidly below 20° C. and homogenized using a two-stage homogenizing valve assembly (Gaulin Homogenizer, APV Gaulin, Hilversum, The Netherlands) for 5 min. All the manufacturing procedures were carried out under aseptic conditions and a nitrogen atmosphere. The pH was adjusted to 7.4 using a sodium hydroxide solution (10%). The final fine emulsion was filtered to achieve sterility and stored in ampoules. A typical formulation (%, w/w) consisted of the following: HU-259, 0.2%; oily phase, 20.0%; purified fractionated egg phospholipids, 1.2%; nonionic emulsifier, 2%; glycerin, 2.25%; α-tocopherol, 0.02%; methyl and butyl p-hydroxy- benzoic ester, 0.3 and 0.075%, respectively; and water for injection, to 100.0 g. The control emulsion vehicle was prepared using identical experimental conditions but without drug.
IOP was measured by using a pneumatonometer (Digilab T30). Pressure readings were calibrated for verification every 6 h. One drop (50 μl) of local anesthetic (Benoxinate HCl, 0.4% Fischer [Isr] diluted 1:3 with sterile saline) was instilled into each eye prior to IOP measurements.

[2] = test system: closed head injury, a model of head trauma; conditions: Shohami et al. 1993; cited from earlier work
[3] = test system: voltage-dependent P-type calcium channels; assay: Inhibition of voltage-dependent P-type calcium channels expressed in oocytes; format: biochemical, rat
cannabinoid receptors = conditions: Devane et al. 1992; cited from earlier work
GABA receptors = assay: Effect on GABA responses in oocytes; format: biochemical, rat
[4] = test system: NMDA receptor linked ion channel; conditions: Nadler et al. 1993; cited from earlier work
AMPA/kainate receptors = assay: Effect on kainate responses in oocytes; format: biochemical, rat
[5] = test system: CA1 hippocampal region in gerbils; conditions: injected after the ischemic insult; Bar-Joseph et al. 1993; cited from earlier work
[6] = biological target: MK-801 sites located at the NMDA receptor ion channel; assay: Inhibition of [3H]MK-801 binding to rat forebrain membranes
Excerpt: Binding to the NMDA receptor linked channel: Non competitive antagonists of NMDA, the primary example of which is the compound MK-801, bind to a site within the NMDA receptor channel thus preventing the activation of the receptor-channel complex and the consequent neurotoxicity. The ability of various compounds to compete with the binding of tritium labeled MK-801 to brain membranes is considered a measure of their potency as NMDA non-competitive antagonists.
The association of pinene derivatives with acetylcholine-muscarinic receptor and with MK-801 sites located at the NMDA receptor ion channel.
Inhibition of ^3 [H]MK-801 binding to rat forebrain membranes by the test HU-211 compounds was carried out as described for HU-211 in Eshhar et al., NeuroReport 5, No. 3, 1993) (Methods section). The test compounds were solubilized in a mixture of ethanol:Emulfor:water (20:3:57).

[7] = test system: NMDA-induced tremor, seizures and lethality in mice; conditions: Feigenbaum et al. 1989; cited from earlier work
[8] = test system: rat brain cortical membrane preparations; conditions: cited from earlier work
[9] = test system: intraocular pressure (IOP); conditions: in vivo; cited from earlier work
NMDA toxicity in mice = assay: Prevention of NMDA neurotoxicity in mice (neurological scores); format: in vivo, mice (Balb/C); conditions: for maximum improvement of neurological scores: NMDA 60 mg/kg s.c., i.p. or i.v. pretreatment; for neurological scores/symptoms after NMDA toxicity: pretreated mice
Excerpt: Blockade of NMDA toxicity in mice: Subcutaneous injection of NMDA in mice results in a dose-dependent increase in the number, severity and duration of several neurological symptoms, culminating in death at the higher dose range. The symptoms include tail flicks, circling, tremor and convulsions. The ability of various compounds, when administered to mice prior to NMDA, to reduce the number and severity of these symptoms is a considered a measure of their potency in preventing NMDA behavioral toxicity in vivo.
Test drugs were administered intraperitoneally at the stipulated doses in a solution of MCT oil. Each point represents the mean scores of eight mice treated with the drug compared to the same number of control animals receiving the vehicle alone.
Test compounds were administered at a standard dose of 10 mg/kg either intraperitoneally (in MCT oil) or intravenously (in a submicronized emulsion).
(§1) Bicyclic compounds of the present invention were tested for their ability to block NMDA toxicity in mice. Balb/C mice received NMDA by subcutaneous injection at a dose of 60 mg/kg which was determined to be the LD20 dose of this substance. Thirty minutes prior to injection of the neurotoxin the animals received either (a) an intravenous injection of the test drug formulated in submicronized emulsion as described in Example 11); (b) an intraperitoneal injection of the test drug dissolved in MCT oil; (c) or the appropriate vehicle alone (control groups). The improvement rate afforded by the test drug was defined as the difference between scores of animals receiving the formulated drug and those receiving the vehicle alone. The doses tested for HU-254, HU-259 and HU-260 ranged from 5 to 30 mg/kg.
At least 6-8 mice were included per test group. The materials were tested in a masked study to preclude bias of the observer of clinical symptoms.
The behavioral scoring method (tabulated above) was used as the basic quantitative procedure for evaluating the level of NMDA or kainic acid neurotoxicity in mice. The neurological clinical status of each animal was calculated by totalling the scores of all signs that were evident throughout the study. Duration of symptoms was also taken into account.
If duration of a neurological system is up to 30 seconds, the score is s-1. Duration between 0.5-3.0 mins, the score is s. Duration longer than 3 mins, the score is s+1.

[10] = test system: acetylcholine-muscarinic receptor; format: binding, rat; conditions: 100 μM analogue
Balb/C mice = assay: Lethality of subcutaneous NMDA in mice; format: in vivo; conditions: subcutaneous injection
Experimental: as §1

## CCCCCCC(C)(C)c1ccc([C@@H]2C[C@H](O)CC[C@H]2CCCO)c(O)c1 [CP-55940]
Cannabimimetic activity
  cannabimimetic activity: found to produce cannabimimetic effects

## CCCCCCC(C)(C)c1cc(O)c2c(c1)OC(C)(C)[C@@H]1CC=C(CO)C[C@@H]21 [HU-210, 1,1 dimethylheptyl (DMH) homolog of [3R,4R]-7-hydroxy Δ^6 THC, reference compound]
Rat brain NMDA receptors; 10 μM
  % inhibition of NMDA: 0%
Rat brain NMDA receptors; concentrations up to 10 μM
  inhibitory effects on NMDA response: did not have any inhibitory effects
Cannabimimetic activity
  cannabimimetic activity: two orders of magnitude higher than the natural Δ^1 THC

## CCCCCCC(C)(C)c1cc(O)c2c(c1)OC(C)(C)[C@H]1CC=C(CO)C[C@H]21 [HU-211, 7-hydroxy-Δ^6-tetrahydrocannabinol 1,1-dimethylheptyl, reference compound]
Rat brain NMDA receptors; 1 μM
  % inhibition of NMDA: 32%
Rat brain NMDA receptors; 10 μM
  % inhibition of NMDA: 47%
Rat brain NMDA receptors; Lineweaver-Burke analysis
  mode of NMDA antagonism: non-competitive NMDA antagonists
Rat brain NMDA receptors; NMDA response
  concentration at which inhibitory activity was first apparent: 10 nM
[1]; contralateral eye
  AUC (from instillation of treatment until return to baseline IOP): -4.9 ± 7.0 mmHg × hrs
  Max ΔIOP: -2.0 ± 1.1 mmHg
[1]; treated eye
  AUC (from instillation of treatment until return to baseline IOP): -9.5 ± 6.0 mmHg × hrs
[1]; treated eye, single dose 0.2% emulsion
  Max ΔIOP: -2.9 ± 0.7 mmHg
[2]
  extent of edema formation and overall neurological damage: significantly reduced
[3]
  inhibition of activity of voltage-dependent P-type calcium channels: did not inhibit
Cannabinoid receptors
  affinity to the cannabinoid receptors: very low affinity
GABA receptors
  effect on GABA responses: no effect
[4]
  NMDA induced uptake of 45Ca++ ions: block the NMDA induced uptake
AMPA/kainate receptors
  effect on kainate responses: no effect
[5]
  neuronal cell damage in CA1 hippocampal region: prevent neuronal cell damage
Cannabimimetic activity
  cannabimimetic activity: inactive as a cannabimimetic
[6]; [3H]MK801 binding, rat forebrain membranes, representative experiment in triplicate (HU259), read-out: inhibition constant (K1)
  Ki: 11.3 µM
[7]
  block of NMDA-induced tremor, seizures and lethality: block NMDA-induced tremor, seizures and lethality in mice
[8]
  increase in binding of [3H]TCP induced by polyamines, glutamate or glycine: blocked the increase in binding
[9]
  lowering of intraocular pressure: lowering of intraocular pressure (IOP)

## CCCCCCC(C)(C)c1cc(OC(C)=O)c([C@H]2C=C(COC(C)=O)[C@H]3C[C@@H]2C3(C)C)c(OC(C)=O)c1 [HU-254]
NMDA toxicity in mice
  maximum improvement of neurological scores: 30-40%
  neurological scores/symptoms after NMDA toxicity: improvement in neurological scores
NMDA toxicity in mice; i.p. dose of 20 mg/kg
  maximum improvement rate on the neurological scores: 25%
NMDA toxicity in mice; i.v. vs i.p.
  effect of route of administration on performance: significantly enhanced by i.v. administration
[6]; 100 μM analogue
  % inhibition of tritiated ligand binding to membranes, 3[H]-MK-801: 5.3%
[10]
  % inhibition of tritiated ligand binding to membranes, 3[H]QNB: 96.1%

## CCCCCCC(C)(C)c1cc(OC(C)=O)c([C@H]2C=C(CO)[C@H]3C[C@@H]2C3(C)C)c(OC(C)=O)c1 [HU-260]
NMDA toxicity in mice
  maximum improvement of neurological scores: 30-40%
  neurological scores/symptoms after NMDA toxicity: improvement in neurological scores

## CN[C@H](CC(=O)O)C(=O)O [NMDA, N-methyl-D-aspartate]
Balb/C mice
  LD20 dose: 60 mg/kg

## COc1ccc(C(=O)c2c(C)n(CCN3CCOCC3)c3ccccc23)cc1 [pravadoline]
Cannabimimetic activity
  cannabimimetic activity: found to produce cannabimimetic effects
